Measurements from paper PMC11915509, “Small molecule inhibitors of hnRNPA2B1–RNA interactions reveal a predictable sorting of RNA subsets into extracellular vesicles” (Nucleic Acids Research, 2025).

Legend:
[1] = tested on: hnRNPA2B1 isoform; design: method as in PMID 29379020; conditions: hnRNPA2B1 isoform ref 45; read-out: observed Kd; cited from earlier work
[2] = molecular target: T1, GST-hnRNPA2B1 (Homo sapiens, UniProt P22626); test: AlphaScreen binding kinetics with EXOmotif probe; conditions: 30 nM GST-hnRNPA2B1, time frame of 2 h
T1 construct: purified a human full-length, GST-tagged protein expressed in Escherichia coli cells; made in house; host or cells: E. coli BL21 (DE3)
T1 sequence (P22626 whole entry): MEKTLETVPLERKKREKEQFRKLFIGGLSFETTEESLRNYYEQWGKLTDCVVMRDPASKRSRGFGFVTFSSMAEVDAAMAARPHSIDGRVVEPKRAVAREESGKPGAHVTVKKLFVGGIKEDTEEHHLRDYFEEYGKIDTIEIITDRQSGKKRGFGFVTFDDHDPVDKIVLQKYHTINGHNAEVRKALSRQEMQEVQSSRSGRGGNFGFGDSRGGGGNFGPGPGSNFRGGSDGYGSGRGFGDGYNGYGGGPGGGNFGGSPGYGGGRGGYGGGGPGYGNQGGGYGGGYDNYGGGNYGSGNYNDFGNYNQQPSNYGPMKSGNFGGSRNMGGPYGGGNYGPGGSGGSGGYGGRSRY
Experimental: AlphaScreen assay was used to study the interaction between hnRNA2B1 and different biotinylated single-stranded RNA probes: EXO RNA (5′-BTeg- […]), RNA 114 (5′- BTeg-[…]), and RNA 276 (5′-B-Teg- […]). The assays were performed in OptiPlate-384-well plates (PerkinElmer, 6007299) in 20 μl final volume. The ligands were diluted in AlphaBuffer [25 mM HEPES, pH 7.4, 100 mM NaCl, 0.01% bovine serum albumin (BSA)] and tested using AlphaScreen GST Detection Kit (PerkinElmer, 6760603C). For the assay optimization, different concentrations of the RNA probes (0–100 nM) were incubated with different concentrations of GST-hnRNPA2B1 (0–60 nM) in the presence of streptavidin Donor beads and anti-GST-Acceptor beads (PerkinElmer) (20 μg/ml final concentration). […]
Figure 2. […] Dissociation constants (Kd) were determined from nonlinear regression one-site binding model in GraphPad Prism®, version 9.0. […] Association (Kon) and dissociation (Koff) rate constants and equilibrium dissociation constants (koff/kon) were determined using nonlinear regression association kinetic model of multiple ligand concentration in GraphPad Prism®, version 9.0. […] Densitometric quantification of protein fractions were normalized to the input. […] (G) Distribution of positive (EXOmotif) and negative (ARE) protein–RNA probe interactions calculated in the primary drug screening. […]

Row | Substance | Kd [1] [nM] | association rate constant kon [2]
1 | RNA 114: RNA oligo 5′-AAGGACUAGC | 114 | 
2 | EXOmotif: single-stranded RNA oligo 5′-GGGGAGGUUAGGGAGGAGGGGGGUAGGCGCC (RNA, backbone not given here) |  | 523 664 M^−1min^−1
